“Also recorded” adds a separate entry of the source.
What was measured:
[1] = tested on: SOCE; parameters: method as in PMID 30347159; details: cited from earlier work
[2] = tested on: cerulein-induced AP; parameters: method as in PMID 30347159; details: rodents; cited from earlier work
[3] = tested on: SOCE; assay: SOCE inhibition in HEK cells by fluorescence microscopy (calcium imaging); format: cell-based, human; details: HEK cells, Figure S1
Procedure: With these two compounds in hand, two click reactions were performed and compounds 9 and 18 (Table 1), displaying the same substructures as the reference compound Synta66, were obtained with a yield of 31 and 60%, respectively. 9 and 18 were tested for activity on SOCE in HEK cells, a human embryonic kidney (HEK) cell line, by fluorescence microscopy, as described elsewhere.[16] After 600 s, Ca^2+ was added and intracellular levels were measured.
Screening, dose–response experiments, and calcium imaging experiments were performed in HEK cells (ATCC, Rock, ville, MD, USA), as already reported elsewhere.[16]

[4] = Thermodynamic aqueous solubility and solubility in in vivo vehicles; format: physicochemical
Procedure: Thermodynamic aqueous solubility was determined as follows: about 3 mg of the tested compound was weighed and dissolved in 3 mL of deionized water. After vigorous mixing by vortex followed by sonication for 5 min, the resulting supersaturated solution was shaken horizontally overnight at 25 °C. After filtration over a syringe filter (pore 0.22 μm, regenerate cellulose membrane), 100 μL of DMSO was added to 1 mL of the filtered solution. The resulting solution was further diluted in water (typically 1:10) before LC–UV analysis. Aqueous solubility was calculated comparing the filtrate peak area to those of the tested compound DMSO solutions. Solubility in aqueous media was also checked in the following vehicles at the target concentration of 6 mg/mL: saline + 10% DMSO, saline + 10% DMSO + 20% PEG400, saline + 5% ethanol.

[5] = In vitro metabolic stability in mouse liver microsomes; format: in vitro ADME; details: MLMs, 50 μM substrate, 3 mM GSH trapping agent, HRMS
Procedure: Next, the in vitro metabolic stability of the five candidates (31, 34, 36, 38, and 40) was evaluated in mouse liver microsomes (MLMs) activated by NADPH by measuring the substrate residual after 1 h. For comparative purposes, Synta66 was incubated in the same conditions.
Phase I and II (glucuronidation) incubations were performed in MLMs (pooled male mouse CD-1, protein concentration: 20 mg/mL, purchased from Corning B.V. Life Sciences—Amsterdam, The Netherlands) using the procedure previously described[16] with the following modifications: 5 μM substrate concentration for the determination of the residual percentage and 50 μM for 34 metabolite characterization by HRMS; when metabolic activation was studied, 3 mM GSH trapping agent was added in the incubation mixture.

[6] = PK analysis in mice; format: in vivo; details: C57BL/6, mouse, plasma, 7 mg/kg
Procedure: To further characterize the compound, a PK analysis was performed in mice. Briefly, mice were injected with 34 (i.v., 7 mg/kg, once) and serial blood sampling was performed.
(§1) All animal experiments observe the regulations in Italy (D.M. 116192) as well as the EU regulations (O.J. of E.C. L 358/1 12/18/1986). Compound 34 was injected i.v. at a dose of 7 mg/kg in C57BL/6 mice. Blood was collected after 5, 15, 30, 60, 120, 240, 360 min and 24 h. Aliquots of plasma samples were analyzed as previously reported.[16] AP was induced in mice by i.p. injections of cerulein, as already reported elsewhere.[16]
In vivo PK evaluation of compound 34.
Table S6. PK parameters of single administration of compound 34 (e.v., 7 mg/kg, n=5)
Parameter Unit Value S.D.

[7] = tested on: cerulein-induced murine model of AP; assay: Cerulein-induced murine model of AP; format: in vivo, mouse; details: 10 mg/kg i.p. 30 and 150 min after first cerulein injection; tissue collected at 5 h
Procedure: The PK profile of our candidate prompted us to investigate its efficacy in a cerulein-induced murine model of AP.[29]
as §1

[8] = tested on: HEK cells; assay: HEK cell viability after 72 h at 50 μM with or without uridine (involvement of DHODH); details: up to 60 μM
[9] = intravenous, Table S6, single administration, e.v., n=5
[10] = iv, mice, i.v., once, read-out: half-life (t1/2) (converted)

Structure (SMILES)	IC50 [1] [µM]	efficacy in cerulein-induced AP [2]	AUC compared to the reference compound Synta66 [3]	AUC, peak amplitude, and slope of the Ca2+-rise ([3]; selected compounds)	solubilization at 6 mg/mL in saline containing 10% DMSO + 20% PEG400 ([4]; nominal concentration 6 mg/mL, vehicle for in vivo administration)	increase in aqueous solubility of 34 compared to 36 ([4]; sodium salts) [fold]	solubility ([4]; thermodynamic, deionized water, 25 °C overnight, biphenyl triazoles as sodium salts, read-out: H2O solubility) [µg/mL]	formation of glutathione (GSH) adducts [5]	Cmax [6, 9] [ng/mL]	Tmax [6, 9] [h]	Cmax ([6]; iv, mice, once) [ng/mL]	clearance at 24 h ([6]; iv, mice, i.v., once, read-out: clearance (Cl) (converted)) [mL/min/kg]	half-life [6, 10] [h]	half-life at 24 h [6, 10] [h]	histological scores of pancreatic tissue (H&E), inflammation and edema [7]	cytotoxicity in HEK cells up to 60 μM [8]
CCCC(C)OC(=O)c1cnn(-c2ccc(-n3cc(-c4cccc(C(=O)O)c4)nn3)cc2)c1C(F)(F)F (stereo not shown) [Compound 3]	4.4	demonstrated efficacy; also recorded: significantly ameliorate cerulein-induced AP in rodents without signs of toxicity	–	–	–	–	–	–	–	–	–	–	–	–	–	–
COc1cccc(-c2ccc(-n3cc(-c4cccc(C(=O)O)c4)nn3)cc2)c1OC [Compound 34, 3-(1-(2′,3′-Dimethoxy-[1,1′-biphenyl]-4-yl)-1H-1,2,3-triazol-4-yl)benzoic Acid]	–	–	significantly reducing the AUC	induced a drop in the three parameters	limpid solution	80	1530	did not highlight the formation of glutathione (GSH) adducts	16800	0.2	16800	8.33	3.21	3.2	significantly ameliorate the histological scores; also recorded: efficacy in a mouse model of cerulein-induced AP	no detectable cytotoxicity
